Source: patent publication US20260076939A1, “CHIRAL GAMMA LACTAM DERIVATIVE OR PHARMACEUTICALLY ACCEPTABLE SALT THEREOF, AND PREPARATION METHOD THEREFOR” (Korea University Research and Business Foundation, priority 2022, published 2026)
Structures can show the parent of a compound that is named as a salt.

Legend:
[1] = test system: Parkinson's disease mouse MPTP model; test: Rotarod test (latency to fall), 5 weeks; format: in vivo; conditions: MPTP mice; for motility in the rotarod test (latency to fall): compared to the control group and the MPTP alone treatment group, FIG. 9(a)
Protocol: (§1) Six-month-old normal mice were acclimated for one week, trained for behavioral testing, and then randomly divided into groups. To construct a Parkinson's disease mouse MPTP model, mice were treated with the chiral gamma-lactam derivative of the present disclosure or a pharmaceutically acceptable salt thereof (dissolved in 0.9% saline, intraperitoneally injected (ip)) for 3 days, and then were treated with MPTP (dissolved in 0.9% saline, ip) for 5 consecutive days. […] For the control mice group, the same volume of saline solution (ip) was provided. Two days after the last injection, the efficacy was confirmed by an open field test (OFT), forced swim test (FST), rotarod test, and pilocarpine-induced seizure evaluation.
(§2) To evaluate the walking and motor abilities of the lower extremities of mice, a rotarod test was performed for 5 weeks. Motor coordination and balance were assessed by placing the mice on a rotating bar and measuring the time until they fell therefrom (latency to fall). MPTP was injected intraperitoneally into the mice at a concentration of 30 mg/kg for 5 consecutive days. One week after the MPTP was injected, MPTP was administered to the mice intraperitoneally (15 mg/kg) twice a week. The rotarod consists of a rotatable cylindrical rod with a diameter of 7 cm, located at a height of 60 cm and six baffles spaced at 15 cm intervals. Then, mice were placed on the rod while the rod was rotated for 180 seconds at a speed of 5 to 50 rpm (maximum speed) and the latency to fall was measured. At this time, the mice were sufficiently trained to be acclimated during the experimental period.

[2] = test system: pilocarpine-induced seizure mouse model; test: Evaluation of pilocarpine-induced seizures; format: in vivo; conditions: male C57BL/6J mice, 15 mg ip 25 minutes before pilocarpine 330 mg/kg, monitored for 24 hours; compared to the control group; FIG. 10
Protocol: A pilocarpine-induced seizure mouse model was created to study changes in brain activity. Pilocarpine is an agonist that binds to muscarinic cholinergic receptors in nerve cells and increases cell activity, and is used to create a mesial temporal lobe epilepsy model.
The present experiment was performed on surgically operated-on male C57BL/6J mice under a constant environmental condition (24-25° C., 50-60% humidity, 12-hour light/dark cycle). […] Pilocarpine (Sigma, Deisenhofen, Germany) was injected intraperitoneally into the mouse at a single dose of 330 mg/kg, and behavioral and electrophysiological seizure patterns were monitored for 24 hours. […]
The seizure patterns were divided into the following five types, and cases (4) and (5) were defined as convulsive seizures and analyzed for their frequency and duration: (0) no convulsive behavior; (1) facial clonus; (2) head nodding; (3) forelimb clonus; (4) rearing: animal in a standing posture aided by tail and the laterally spread hindlimbs showing increased tone; (5) rearing and falling back.

HEK293T cell line = test: Intracellular Ca2+ concentration by confocal laser scanning microscopy (CLSM), Fluo-3-AM; format: cell-based, human; conditions: HEK293T cells; for Ca2+ release performance: compared to the control rasagiline and the comparator (R)-phenylpiracetam, FIGS. 2 and 3
Protocol: To detect intracellular Ca^2+ levels, the HEK293T cell line, human renal epithelial cells, were seeded in 35 mm diameter confocal dishes 24 hours before the experiment and then were cultured to 40-60% confluency. The cells were loaded with […] fluorescent […] calcium indicator Fluo-3-acetoxymethyl (Fluo-3-AM; Invitrogen) for 30 min at 37° C. The concentration of Ca^2+ was determined using CLSM (Zeiss LSM 700 Meta; Zeiss, Oberkochen, Germany). […] The excitation and emission wavelengths for signal detection were 488 nm and 515 nm, respectively. Analysis of intracellular calcium intensity was performed using Zen software (Carl Zeiss).

GDF-8/Myostatin [3] = test: Expression of the sarcopenia-related marker GDF-8/Myostatin in mouse serum; format: in vivo; conditions: MPTP mice, 15 mg/kg ip twice a week for 5 weeks, FIG. 11; for expression level of GDF-8/Myostatin in mouse serum: compared to IGF-1 and (R)-phenylpiracetam treatment groups
Protocol: MPTP was injected intraperitoneally into the mouse at a concentration of 30 mg/kg for 5 consecutive days. One week after the MPTP was injected, the chiral gamma-lactam derivative of the present disclosure or a pharmaceutically acceptable salt thereof (Ph-10, 20, 30) was administered intraperitoneally to the mouse at a concentration of 15 mg/kg twice a week, for 5 weeks, and the changes in the expression level of GDF-8/Myostatine, a sarcopenia-related marker in mouse serum, were determined.

[4] = test system: tibialis anterior (TA) and extensor digitorum longus (EDL) muscle; test: Muscle weight after the five-week rotarod test; format: in vivo; conditions: MPTP mice, after five weeks; for tibialis anterior (TA) muscle weight: FIG. 9(b); for extensor digitorum longus (EDL) muscle weight: FIG. 9(c)
Protocol: as §2

SYP (synaptophysin) = test: mRNA expression by real-time PCR in MPTP-treated SH-SY5Y cells: SYP; format: cell-based, human; conditions: 2.5 mM MPTP, compared to MPTP alone, FIG. 6(a)
Protocol: (§3) After inducing an inflammatory response by treating a human neuroblastoma SH-SY5Y cell line with 2.5 mM MPTP (1-methyl-4-phenyl-1,2,3,6-tetrahydropyridine), the mRNA expression of SYP (synaptophysin), GAP-43 (Growth-associated protein-43), MAO-B (Monoamine oxidase-B), and iNOS (inducible nitric oxide synthase) was confirmed by real-time PCR.

SMAD2 = test: Human skeletal myoblast (HSKM) differentiation induction test, ELISA: SMAD2; format: cell-based; conditions: compared to (R)-phenylpiracetam treatment group, FIG. 5(a)
Protocol: (§4) For the human skeletal myoblast (HSKM) differentiation induction test, human skeletal myoblasts (3×10^5 cells/well) were prepared in 24-well plates. Then, these cells were treated with the test substances and incubated in a 37° C., CO2 incubator for 48 hours. After 24 and 48 hours of incubation, the cell culture supernatant was collected into an E-tube and stored in a deep freezer. For ELISA analysis, the supernatant was thawed and prepared. ELISA analysis was performed based on the test method presented in the ELISA kit.

[5] = test system: Parkinson's disease mouse MPTP model; test: Open field test (OFT); format: in vivo, mice; conditions: for total distance moved in the open field test: 10 mg/kg, compared to (R)-phenylpiracetam, MPTP alone and Selegiline treatment groups
Protocol: as §1
To measure general motor activity levels and behavioral anxiety of the mice, an open field test was performed. (1) First, 30 minutes before performing the open field test, the chiral gamma-lactam derivative of the present disclosure or a pharmaceutically acceptable salt thereof and a vehicle (saline, test drug) were injected intraperitoneally to the mice and their behavior was video recorded for 10 minutes. (2) Video analysis was used to check for sedation and measure the distance the mice moved.

[6] = test system: Parkinson's disease mouse MPTP model; test: Forced swim test (FST); format: in vivo; conditions: MPTP mice, FIG. 8; for immobility time in the forced swim test: ip 30 minutes before the test, compared to the MPTP alone treatment group
Protocol: as §1
The forced swim test (FST) was performed to induce depressive behavior in mice. (1) First, a 2 L beaker was filled with water (25±1° C.) until the water was about 10 cm deep, and the mouse was allowed to swim. The mouse was returned to the breeding cage after 6 minutes. (2) The restraint stress group was confined in a restraint tube for 90 minutes until 60 minutes before the forced swim test was to be performed, and then the mouse was allowed to swim as mentioned in (1). Thereafter, the mouse was returned to the breeding cage. (3) In this case, the chiral gamma-lactam derivative of the present disclosure or a pharmaceutically acceptable salt thereof (saline, test drug) was injected into the abdominal cavity 30 minutes before the forced swim test was performed. Immobility time was measured for 4 minutes out of the 6 minutes and these measurements were compared between groups.

SMAD3 = test: Human skeletal myoblast (HSKM) differentiation induction test, ELISA: SMAD3; format: cell-based; conditions: compared to (R)-phenylpiracetam treatment group, FIG. 5(b)
Protocol: as §4

GDF-8/Myostatin [7] = test: Human skeletal myoblast (HSKM) differentiation induction test, ELISA of culture supernatant: GDF-8/Myostatin; format: cell-based; conditions: compared to IGF-1 and (R)-phenylpiracetam treatment groups, FIG. 4
Protocol: as §4

[8] = test system: iNOS (inducible nitric oxide synthase); test: mRNA expression by real-time PCR in MPTP-treated SH-SY5Y cells: iNOS; format: cell-based, human; conditions: 2.5 mM MPTP, compared to MPTP alone, FIG. 6(a)
Protocol: as §3

[9] = test system: MAO-B (Monoamine oxidase-B); test: mRNA expression by real-time PCR in MPTP-treated SH-SY5Y cells: MAO-B; format: cell-based, human; conditions: 2.5 mM MPTP, compared to MPTP alone, FIG. 6(a)
Protocol: as §3

[10] = test system: GAP-43 (Growth-associated protein-43); test: mRNA expression by real-time PCR in MPTP-treated SH-SY5Y cells: GAP-43; format: cell-based, human; conditions: 2.5 mM MPTP, compared to MPTP alone, FIG. 6(a)
Protocol: as §3

[11] = test system: human neuroblastoma SH-SY5Y cell line; test: Fluorescence microscopy of Ca2+ and superoxide anions in MPTP-treated SH-SY5Y cells; format: cell-based; conditions: SH-SY5Y after the MPTP treatment; FIG. 6(b)

Row | Compound | motility in the rotarod test (latency to fall) [1] | total number of convulsive seizures [2] | Ca2+ release performance (HEK293T cell line) | expression level of GDF-8/Myostatin in mouse serum (GDF-8/Myostatin [3]) | tibialis anterior (TA) muscle weight [4] | extensor digitorum longus (EDL) muscle weight [4] | mRNA expression of SYP (SYP (synaptophysin)) | SMAD2 level (SMAD2) | total distance moved in the open field test ([5]; MPTP mice, ip, FIG. 7(b)) | immobility time in the forced swim test [6] | SMAD3 level (SMAD3) | GDF-8/Myostatin level (GDF-8/Myostatin [7]) | mRNA expression of iNOS [8] | mRNA expression of MAO-B [9] | also measured
1 | Cl.NC(=O)CN1C[C@H](c2ccccc2)CC1=O [Ph-20, (S)-2-(2-oxo-4-phenylpyrrolidin-1-yl)acetamide hydrochloride] | motility was increased | effectively reduced | far superior | relatively lower | increased by statistically significant levels | increased by statistically significant levels | significantly increased | effective performance | increased | much shorter | effective performance | performed equally or better |  |  | 
2 | NNC(=O)CN1C[C@@H](c2ccccc2)CC1=O [Ph-10, (R)-2-(2-oxo-4-phenylpyrrolidin-1-yl)acetohydrazide hydrochloride] | motility was increased |  | far superior | relatively lower | increased by statistically significant levels | increased by statistically significant levels | significantly increased | effective performance | increased | much shorter | effective performance | performed equally or better | significantly reduced | significantly reduced | mRNA expression of GAP-43 [10]: significantly increased
3 | NC(=O)CN1C[C@@H](c2ccccc2)CC1=O [phenylpiracetam, (R)-phenylpiracetam, reference compound] |  |  |  |  |  |  |  |  |  | reduced immobility time |  |  |  |  | 
4 | Cl.NC(=O)CN1C[C@@H](c2ccccc2)CC1=O [Ph-30, (R)-2-(2-oxo-4-phenylpyrrolidin-1-yl)acetamide hydrochloride] | motility was increased | significantly lower | far superior | relatively lower | increased by statistically significant levels | increased by statistically significant levels | significantly increased | lowered the SMAD2 and SMAD3 levels the most | increased | much shorter | lowered the SMAD2 and SMAD3 levels the most | reduced GDF-8/Myostatin level the most | significantly reduced | significantly reduced | Ca2+ (fluorescence microscopy) [11]: significantly increased; superoxide anions (fluorescence microscopy) [11]: significantly reduced; efficacy in the rotarod test compared to the Ph-20 compound ([1]; FIG. 9): approximately twice the efficacy; calcium release performance difference, (R)-type Ph-30 compared to (S)-type Ph-20 (HEK293T cell line): ≥ 2 times; time at which the intensity of intracellular calcium was highest (HEK293T cell line; CLSM, FIG. 1 (Ph-30)): 18 s; expression level of GDF-8/Myostatin in mouse serum, comparison among the Ph compounds (chirality) (GDF-8/Myostatin [3]): lowest expression levels; total distance moved relative to the MPTP alone treatment group ([5]; MPTP mice, ip, FIG. 7(b)): approximately three times higher; distance moved in the open field test ([5]; mice, ip, 5, 10 and 15 mg/kg, compared to the control group, FIG. 7(a)): increased compared to the control group at all concentrations; immobility time in the forced swim test compared to the untreated control group (saline) [6]: lower immobility time than the untreated control group
